Data on one compound can be found in patent publication US20250186433A1, “ACSS2 INHIBITORS AND METHODS OF USE THEREOF” (EpiVario, Inc., priority 2017, published 2025).

Like-named read-outs stand apart in the source and are kept apart here. A value given as a limit tells only on which side of the number the result lay.

For assay [1], the target named is T1, ACSS2 (Homo sapiens, UniProt Q9NR19). Nature of the assay: Thermal stabilization of recombinant ACSS2 protein (Nano-DSF). Type of assay: binding. The text has this: Thermal stabilization of recombinant ACSS2 protein by ACSS2 inhibitors. Interaction between the compound and recombinant ACSS2 protein was done by non-labeled Nano-DSF technic using the parameters described below. NanoDSF is a modified differential scanning fluorimetry method to determine protein stability that uses tryptophan or tyrosine fluorescence to monitor protein unfolding. The binding of compound to the protein leads to thermal stabilization that is quantified as the delta in the thermal melting points.

In assay [2] the target is T1, ACSS2. Put plainly: Acyl-CoA synthetases selectivity panel: ACSS2. Type of assay: biochemical. Also noted: purchased Cusabio, China. As to conditions: human recombinant protein, substrate acetate, AMP readout by HPLC; read-out: HPLC based activity assays IC50 (UM) ACSS2. The text has this: The biochemical assays for testing the selectivity of the compounds according to this invention, were done using human recombinant proteins (Cusabio, China). The readout of the assays was AMP levels, the […] of the reactions, by HPLC method. The acyl substrates (Sigma-Aldrich) of the assays were as followed: ACSS1/ACSS2—Acetate, AACS-Acetoacetyl, ACSF2—Octanoate and ACSL5—Palmitate. The protein in this panel include ACSS1, the closest homolog of ACSS2, in addition to representative short/medium/long chain acyl-CoA syntatases.

Assay [3] addresses T1, ACSS2. Nature of the assay: Binding to recombinant ACSS2 protein by Label Free MST. The conditions noted are these: for Kd: read-out: Kd [uM] Fluorescence. From the text: Binding of ACSS2 inhibitor to recombinant ACSS2 protein by Label Free MST. MicroScale Thermophoresis (MST) is an optical fluorescent method that records the changes in fluorescence of a target molecule as a function of temperature and the concentration of the cognate ligand molecule. The binding of small-molecules to the target proteins lead to changes in the fluorescence that can be measured and translated into binding Kd.

T1 sequence (Q9NR19 whole entry): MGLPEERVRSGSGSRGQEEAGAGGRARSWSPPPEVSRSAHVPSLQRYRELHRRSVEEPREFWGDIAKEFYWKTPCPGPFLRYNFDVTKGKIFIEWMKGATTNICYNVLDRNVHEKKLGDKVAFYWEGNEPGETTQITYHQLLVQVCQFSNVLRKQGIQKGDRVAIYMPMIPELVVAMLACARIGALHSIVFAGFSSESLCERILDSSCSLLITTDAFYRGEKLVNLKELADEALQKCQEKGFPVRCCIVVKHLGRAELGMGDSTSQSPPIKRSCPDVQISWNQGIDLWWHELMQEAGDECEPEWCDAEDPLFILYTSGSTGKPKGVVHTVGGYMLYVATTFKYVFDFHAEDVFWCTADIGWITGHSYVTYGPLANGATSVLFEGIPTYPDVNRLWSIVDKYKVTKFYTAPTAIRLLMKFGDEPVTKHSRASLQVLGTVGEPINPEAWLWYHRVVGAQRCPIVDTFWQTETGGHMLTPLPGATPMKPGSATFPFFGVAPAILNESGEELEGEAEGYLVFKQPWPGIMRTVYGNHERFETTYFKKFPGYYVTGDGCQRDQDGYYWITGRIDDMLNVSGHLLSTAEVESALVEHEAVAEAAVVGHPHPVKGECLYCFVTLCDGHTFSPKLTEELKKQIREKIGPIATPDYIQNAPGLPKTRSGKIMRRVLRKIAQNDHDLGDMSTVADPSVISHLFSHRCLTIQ

As for `COC(=O)c1cccc(N2N=C(C)C(C(=O)Nc3cccc(C(C)(F)F)c3)C2=O)c1` (centres unmarked) [compound 261, methyl 3-(4-((3-(1,1-difluoroethyl)phenyl)carbamoyl)-3-methyl-5-oxo-4,5-dihydro-1H-pyrazol-1-yl)benzoate], at ACSS2 [1] (0.03 mg/ml ACSS2, compound at different concentrations), the “thermal shift in the melting temperature of ACSS2” value was “dose-dependent thermal shift in the melting temperature of ACSS2”. Moreover, at ACSS2 [1] (0.3 mM ATP, 0.3 mM ATP + 0.01 mM CoA), the “thermal shift in the presence of ATP or ATP and CoA versus buffer alone” value was “higher in the presence of ATP or ATP and CoA”. Moreover, at ACSS2 [2], the 50% inhibitory concentration (IC50) is below 1 nM. For the same compound, the Kd was 0.46 ± 0.21 µM on ACSS2 [3] (Buffer A (no ATP, no CoA)); 0.03 ± 0.01 µM on ACSS2 [3] (Buffer B (+ATP), 0.3 mM ATP); 0.04 ± 0.02 µM on ACSS2 [3] (Buffer C (+ATP, +CoA), 0.3 mM ATP, 0.01 mM CoA); 0.61 ± 0.17 µM on ACSS2 [3] (Buffer D (+CoA), 0.01 mM CoA). The “reduction of binding Kd when ATP was added to the buffer” value on ACSS2 [3] (Label Free MST) is on record as 10 fold.
